Results: the NIST ThermoML archive (doi:10.1016/j.jct.2007.09.009)

How the values were obtained:
[1] = 298.15 K; 101.33 kPa; Liquid; Pycnometric method
[2] = refractive index (Na D-line) (dimensionless); conditions: 298.15 K; 101.33 kPa; Liquid; Standard Abbe refractometry
[3] = xn = mol fraction of the nth substance listed; conditions: 313.15 K, 101 kPa, Liquid, Direct dilatometry

CC(=O)N(C)C [N,N-dimethylethanamide]
Conditions | mass density [kg/m3] | refractive index
[1] | 922.4 | –
[2] | – | 1.43556

CC(=O)N(C)C [N,N-dimethylethanamide] + CCO
[3]
Conditions | excess molar volume [m3/mol]
x1 = 0.0259 | -3.74e-08
x1 = 0.0456 | -6.13e-08
x1 = 0.0769 | -9.86e-08
x1 = 0.103 | -1.237e-07
x1 = 0.1481 | -1.61e-07
x1 = 0.1765 | -1.787e-07
x1 = 0.2149 | -1.991e-07
x1 = 0.2587 | -2.157e-07
x1 = 0.2846 | -2.228e-07
x1 = 0.3094 | -2.282e-07
x1 = 0.3288 | -2.315e-07
x1 = 0.3513 | -2.338e-07
x1 = 0.3784 | -2.352e-07
x1 = 0.3866 | -2.374e-07
x1 = 0.4014 | -2.353e-07
x1 = 0.4131 | -2.373e-07
x1 = 0.4396 | -2.356e-07
x1 = 0.4661 | -2.327e-07
x1 = 0.4937 | -2.292e-07
x1 = 0.5249 | -2.227e-07
x1 = 0.5532 | -2.161e-07
x1 = 0.5913 | -2.059e-07
x1 = 0.6379 | -1.906e-07
x1 = 0.6743 | -1.761e-07
x1 = 0.7191 | -1.593e-07
x1 = 0.7691 | -1.359e-07
x1 = 0.8211 | -1.109e-07
x1 = 0.8768 | -7.86e-08
x1 = 0.9287 | -4.6e-08
x1 = 0.962 | -2.56e-08

CC(=O)N(C)C [N,N-dimethylethanamide] + CO
[3]
Conditions | excess molar volume [m3/mol]
x1 = 0.0166 | -5.83e-08
x1 = 0.0295 | -9.34e-08
x1 = 0.0344 | -1.106e-07
x1 = 0.0508 | -1.501e-07
x1 = 0.0623 | -1.832e-07
x1 = 0.0717 | -2.034e-07
x1 = 0.0953 | -2.561e-07
x1 = 0.0979 | -2.653e-07
x1 = 0.1263 | -3.178e-07
x1 = 0.1366 | -3.395e-07
x1 = 0.169 | -3.878e-07
x1 = 0.1692 | -3.91e-07
x1 = 0.1997 | -4.315e-07
x1 = 0.2025 | -4.324e-07
x1 = 0.228 | -4.611e-07
x1 = 0.2317 | -4.661e-07
x1 = 0.2533 | -4.845e-07
x1 = 0.2599 | -4.913e-07
x1 = 0.2804 | -5.069e-07
x1 = 0.2837 | -5.077e-07
x1 = 0.3079 | -5.225e-07
x1 = 0.308 | -5.222e-07
x1 = 0.3093 | -5.264e-07
x1 = 0.3243 | -5.305e-07
x1 = 0.3406 | -5.399e-07
x1 = 0.3748 | -5.488e-07
x1 = 0.4031 | -5.518e-07
x1 = 0.4372 | -5.508e-07
x1 = 0.4807 | -5.416e-07
x1 = 0.5265 | -5.238e-07
x1 = 0.5817 | -4.921e-07
x1 = 0.5988 | -4.766e-07
x1 = 0.6131 | -4.66e-07
x1 = 0.6318 | -4.516e-07
x1 = 0.6362 | -4.516e-07
x1 = 0.6489 | -4.37e-07
x1 = 0.6633 | -4.244e-07
x1 = 0.6702 | -4.188e-07
x1 = 0.6938 | -3.98e-07
x1 = 0.6957 | -3.938e-07
x1 = 0.6975 | -3.923e-07
x1 = 0.7225 | -3.669e-07
x1 = 0.7286 | -3.606e-07
x1 = 0.7471 | -3.413e-07
x1 = 0.752 | -3.354e-07
x1 = 0.7584 | -3.295e-07
x1 = 0.7813 | -3.022e-07
x1 = 0.7951 | -2.867e-07
x1 = 0.8055 | -2.731e-07
x1 = 0.8278 | -2.456e-07
x1 = 0.83 | -2.444e-07
x1 = 0.8417 | -2.295e-07
x1 = 0.8584 | -2.065e-07
x1 = 0.8746 | -1.858e-07
x1 = 0.8862 | -1.705e-07
x1 = 0.9051 | -1.481e-07
x1 = 0.9081 | -1.406e-07
x1 = 0.9134 | -1.337e-07
x1 = 0.9384 | -9.87e-08
x1 = 0.943 | -9.15e-08
x1 = 0.9698 | -5.42e-08
x1 = 0.9711 | -5.33e-08

CCO [ethanol]
Conditions | mass density [kg/m3] | refractive index
[1] | 772.2 | –
[2] | – | 1.3592

CO [methanol]
Conditions | mass density [kg/m3] | refractive index
[1] | 772.2 | –
[2] | – | 1.32645
